Data: article PMC8222254, “Self-assembly of an anion receptor with metal-dependent kinase inhibition and potent in vitro anti-cancer properties” (Nature Communications, 2021)
Where “and” joins values, the source holds several entries; their conditions need not be identical. Equal values may be shown once.

Key:
Assay in all cases: Kinase inhibition screen, cell-free 33P ATP assay at 10 μM
Format in all cases: biochemical
[1] = molecular target: T1, 140 purified human kinases (Homo sapiens, UniProt Q92630)
T1 sequence (Q92630 1-601): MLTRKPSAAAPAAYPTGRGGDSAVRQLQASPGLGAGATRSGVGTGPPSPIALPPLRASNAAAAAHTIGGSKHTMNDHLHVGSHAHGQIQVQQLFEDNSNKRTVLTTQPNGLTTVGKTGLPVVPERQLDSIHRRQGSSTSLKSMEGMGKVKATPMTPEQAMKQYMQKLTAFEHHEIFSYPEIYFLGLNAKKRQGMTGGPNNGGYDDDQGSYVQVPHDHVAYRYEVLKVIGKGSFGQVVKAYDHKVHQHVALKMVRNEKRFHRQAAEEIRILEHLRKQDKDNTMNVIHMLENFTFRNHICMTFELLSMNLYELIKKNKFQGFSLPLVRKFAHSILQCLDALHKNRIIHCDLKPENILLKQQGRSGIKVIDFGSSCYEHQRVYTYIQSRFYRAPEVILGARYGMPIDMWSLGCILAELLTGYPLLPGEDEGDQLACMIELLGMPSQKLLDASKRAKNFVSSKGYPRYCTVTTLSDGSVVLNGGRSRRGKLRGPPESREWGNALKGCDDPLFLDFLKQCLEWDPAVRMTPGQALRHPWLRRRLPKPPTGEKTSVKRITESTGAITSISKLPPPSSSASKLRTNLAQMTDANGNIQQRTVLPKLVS
Description: (§1) [L2Cu3]^6+ and [L2Zn3]^6+ were submitted to the MRC Protein Phosphorylation and Ubiquitination Unit International Centre for Kinase Profiling (University of Dundee) and tested in duplicate (at 10 μM) against a series of 140 purified human kinases in a cell-free kinase assay using ^33P ATP[55],[56]. The kinase gene IDs from the screen were then translated into common IDs (HGNC symbol) using biomaRt package[57],[58] in R[59] and R Studio[60] and used as input to the KinMap programme.

[2] = molecular target: 140 purified human kinases (Homo sapiens, UniProt P00519); settings: ABL
140 purified human kinases (Homo sapiens, UniProt P00519), sequence (P00519 whole entry): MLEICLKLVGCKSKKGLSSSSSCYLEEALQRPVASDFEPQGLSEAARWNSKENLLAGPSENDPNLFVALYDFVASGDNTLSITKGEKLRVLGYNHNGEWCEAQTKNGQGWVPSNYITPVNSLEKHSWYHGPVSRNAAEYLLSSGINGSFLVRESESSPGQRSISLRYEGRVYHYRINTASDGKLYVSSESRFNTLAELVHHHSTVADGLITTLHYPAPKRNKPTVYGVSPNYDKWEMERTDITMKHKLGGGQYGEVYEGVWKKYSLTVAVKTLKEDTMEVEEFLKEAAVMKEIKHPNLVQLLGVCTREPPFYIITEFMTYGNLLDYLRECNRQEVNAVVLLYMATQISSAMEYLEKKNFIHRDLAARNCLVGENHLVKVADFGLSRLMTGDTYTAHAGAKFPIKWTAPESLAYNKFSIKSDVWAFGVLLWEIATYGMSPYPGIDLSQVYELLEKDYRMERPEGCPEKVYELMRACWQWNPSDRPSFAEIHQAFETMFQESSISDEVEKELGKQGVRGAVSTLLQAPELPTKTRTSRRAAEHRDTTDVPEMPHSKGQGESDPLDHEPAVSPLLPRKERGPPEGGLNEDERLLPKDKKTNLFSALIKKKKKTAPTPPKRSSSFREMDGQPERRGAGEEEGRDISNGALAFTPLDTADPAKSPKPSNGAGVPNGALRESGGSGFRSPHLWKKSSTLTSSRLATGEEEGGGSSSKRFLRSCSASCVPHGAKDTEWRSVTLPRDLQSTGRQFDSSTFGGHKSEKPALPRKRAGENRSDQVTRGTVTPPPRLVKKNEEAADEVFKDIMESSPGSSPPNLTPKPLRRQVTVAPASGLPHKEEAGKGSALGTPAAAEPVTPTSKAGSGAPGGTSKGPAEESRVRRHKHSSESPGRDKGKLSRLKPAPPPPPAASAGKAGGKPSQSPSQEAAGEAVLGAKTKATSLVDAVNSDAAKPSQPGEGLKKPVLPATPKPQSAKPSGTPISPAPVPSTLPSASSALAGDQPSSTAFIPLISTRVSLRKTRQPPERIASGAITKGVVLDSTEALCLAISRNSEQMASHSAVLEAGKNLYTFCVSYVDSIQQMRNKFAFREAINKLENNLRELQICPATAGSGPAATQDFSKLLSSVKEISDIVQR
Description: as §1

[3] = molecular target: 140 purified human kinases (Homo sapiens, UniProt P17252); settings: PKCa
Description: as §1

[4] = molecular target: 140 purified human kinases (Homo sapiens, UniProt P49760)
140 purified human kinases (Homo sapiens, UniProt P49760), sequence (P49760 whole entry): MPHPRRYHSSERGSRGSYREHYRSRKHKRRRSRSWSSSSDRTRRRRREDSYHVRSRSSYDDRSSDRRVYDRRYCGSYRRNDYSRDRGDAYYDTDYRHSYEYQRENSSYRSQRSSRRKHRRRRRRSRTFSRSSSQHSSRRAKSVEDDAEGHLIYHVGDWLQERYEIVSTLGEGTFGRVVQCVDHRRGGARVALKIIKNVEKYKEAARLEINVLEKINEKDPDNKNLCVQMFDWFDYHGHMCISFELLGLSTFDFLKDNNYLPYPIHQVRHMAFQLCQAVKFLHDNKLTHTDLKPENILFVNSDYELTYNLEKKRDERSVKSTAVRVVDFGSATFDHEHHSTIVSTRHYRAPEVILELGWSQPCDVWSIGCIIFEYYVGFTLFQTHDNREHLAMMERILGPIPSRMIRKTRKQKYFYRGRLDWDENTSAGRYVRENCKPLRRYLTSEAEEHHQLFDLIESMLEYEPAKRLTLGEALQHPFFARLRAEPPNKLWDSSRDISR
Description: as §1

[5] = molecular target: T2, 140 purified human kinases (Homo sapiens, UniProt Q9BXA7)
T2 sequence (Q9BXA7 1-367): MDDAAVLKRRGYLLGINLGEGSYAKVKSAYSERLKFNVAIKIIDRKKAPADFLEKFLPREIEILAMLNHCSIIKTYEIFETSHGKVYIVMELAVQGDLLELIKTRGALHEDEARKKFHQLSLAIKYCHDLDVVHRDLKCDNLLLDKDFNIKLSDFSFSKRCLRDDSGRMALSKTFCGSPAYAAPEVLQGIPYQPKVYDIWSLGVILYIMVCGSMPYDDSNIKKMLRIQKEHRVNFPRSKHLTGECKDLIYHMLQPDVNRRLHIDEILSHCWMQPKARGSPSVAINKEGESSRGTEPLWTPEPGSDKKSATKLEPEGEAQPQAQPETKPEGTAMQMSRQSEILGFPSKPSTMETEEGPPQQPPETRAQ
Description: as §1

[6] = molecular target: T3, 140 purified human kinases (Tribolium castaneum, UniProt D6WMX4); settings: PINK
T3 sequence (D6WMX4 6-570): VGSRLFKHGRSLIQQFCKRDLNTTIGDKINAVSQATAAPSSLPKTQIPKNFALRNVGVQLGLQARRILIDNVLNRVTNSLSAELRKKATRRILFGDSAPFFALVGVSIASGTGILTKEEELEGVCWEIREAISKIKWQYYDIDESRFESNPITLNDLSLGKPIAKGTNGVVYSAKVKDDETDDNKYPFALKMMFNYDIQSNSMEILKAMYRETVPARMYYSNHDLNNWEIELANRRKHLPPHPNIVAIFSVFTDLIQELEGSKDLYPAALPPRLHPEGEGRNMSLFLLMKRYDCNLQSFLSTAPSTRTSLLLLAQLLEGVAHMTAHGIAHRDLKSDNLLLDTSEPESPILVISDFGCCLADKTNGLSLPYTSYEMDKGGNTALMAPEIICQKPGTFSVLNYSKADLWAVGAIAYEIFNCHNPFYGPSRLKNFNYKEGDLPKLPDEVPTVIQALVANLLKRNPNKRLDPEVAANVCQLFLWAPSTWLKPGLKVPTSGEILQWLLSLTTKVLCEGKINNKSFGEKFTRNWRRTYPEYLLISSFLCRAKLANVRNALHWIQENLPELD
Description: as §1

[7] = molecular target: 140 purified human kinases (Homo sapiens, UniProt P45984)
140 purified human kinases (Homo sapiens, UniProt P45984), sequence (P45984 whole entry): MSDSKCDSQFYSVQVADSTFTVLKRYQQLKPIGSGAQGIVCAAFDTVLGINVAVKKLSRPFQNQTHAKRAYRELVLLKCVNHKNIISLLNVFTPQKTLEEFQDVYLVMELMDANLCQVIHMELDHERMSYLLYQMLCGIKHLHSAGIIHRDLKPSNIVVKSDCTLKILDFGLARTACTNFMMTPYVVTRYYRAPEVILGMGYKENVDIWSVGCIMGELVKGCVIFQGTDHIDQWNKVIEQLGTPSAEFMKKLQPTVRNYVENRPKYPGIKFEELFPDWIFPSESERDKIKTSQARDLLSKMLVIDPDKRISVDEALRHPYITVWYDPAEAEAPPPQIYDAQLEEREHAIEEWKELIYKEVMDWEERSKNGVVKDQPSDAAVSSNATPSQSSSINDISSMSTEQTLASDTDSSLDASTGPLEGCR
Description: as §1

## CC(=O)[O-].CC(=O)[O-].CC(=O)[O-].CC(=O)[O-].CC(=O)[O-].CC(=O)[O-].[Zn+2].[Zn+2].[Zn+2].c1ccc(-c2csc(NCCN(CCNc3nc(-c4ccccn4)cs3)CCNc3nc(-c4ccccn4)cs3)n2)nc1.c1ccc(-c2csc(NCCN(CCNc3nc(-c4ccccn4)cs3)CCNc3nc(-c4ccccn4)cs3)n2)nc1 [[L2Zn3]6+]
[1]; DYRK2
  % Activation, Mean value: 4.5%
  % Inhibition, Mean: -4.5%
  mean % activity: 105%
[1]; DYRK2, duplicate runs
  % activity: 97% and 112%
[2]
  % Inhibition, Mean: 9%
  mean % activity: 91%
[2]; duplicate runs
  % activity: 81% and 100%
[3]
  % Inhibition, Mean: 42%
  % Inhibition, Run 1 / Run 2: 45% and 40%
  mean % activity: 58%
[3]; duplicate runs
  % activity: 56% and 60%
[4]; CLK2
  % Inhibition, Mean: 44%
  % Inhibition, Run 1 / Run 2: 43% and 45%
  mean % activity: 56%
[4]; CLK2, duplicate runs
  % activity: 57% and 55%
[5]; TSSK1
  % Inhibition, Mean: 27%
  % Inhibition, Run 1 / Run 2: 29% and 24%
  mean % activity: 73%
[5]; TSSK1, duplicate runs
  % activity: 71% and 76%
[6]
  % Inhibition, Mean: 5.35%
  % Inhibition, Run 1 / Run 2: 5% and 6%
  mean % activity: 95%
[6]; duplicate runs
  % activity: 95% and 94%
[7]; JNK2
  % Inhibition, Mean: 31%
  % Inhibition, Run 1 / Run 2: 33% and 28%
  mean % activity: 70%
[7]; JNK2, duplicate runs
  % activity: 67% and 72%

## [Cu+2].[Cu+2].[Cu+2].c1ccc(-c2csc(NCCN(CCNc3nc(-c4ccccn4)cs3)CCNc3nc(-c4ccccn4)cs3)n2)nc1.c1ccc(-c2csc(NCCN(CCNc3nc(-c4ccccn4)cs3)CCNc3nc(-c4ccccn4)cs3)n2)nc1 [[L2Cu3]6+]
[1]; DYRK2
  % Inhibition Run 1: 27.2%
  % Inhibition Run 2: -2.7%
  % Inhibition, Mean: 12%
  mean % activity: 88%
[1]; DYRK2, Run 1
  % activity: 72.8%
[1]; DYRK2, Run 2
  % activity: 102.7%
[2]
  % Activation, Mean value: 17%
  % Inhibition Run 1: -27.4%
  % Inhibition Run 2: -7.5%
  % Inhibition, Mean: -17%
  mean % activity: 117%
[2]; Run 1
  % activity: 127.4%
[2]; Run 2
  % activity: 107.5%
[2]; 10 µM
  % Activity Run 1: 127.40%
  % Activity Run 2: 107.50%
[3]
  % Inhibition Run 1: 45.4%
  % Inhibition Run 2: 66.7%
  % Inhibition, Mean: 56%
  mean % activity: 44%
[3]; Run 1
  % activity: 54.6%
[3]; Run 2
  % activity: 33.3%
[4]; CLK2
  % Activation, Mean value: 3%
  % Inhibition Run 1: -9.8%
  % Inhibition Run 2: 3.9%
  % Inhibition, Mean: -3%
  mean % activity: 103%
[4]; CLK2, Run 1
  % activity: 109.8%
[4]; CLK2, Run 2
  % activity: 96.1%
[5]; TSSK1
  % Inhibition Run 1: 44%
  % Inhibition Run 2: 46.8%
  % Inhibition, Mean: 45%
  mean % activity: 55%
[5]; TSSK1, Run 1
  % activity: 56%
[5]; TSSK1, Run 2
  % activity: 53.2%
[6]
  % Inhibition Run 1: 49.3%
  % Inhibition Run 2: 39.6%
  % Inhibition, Mean: 44%
  mean % activity: 56%
[6]; Run 2
  % activity: 60.4%
[7]; JNK2
  % Inhibition Run 1: 22.9%
  % Inhibition Run 2: 15.4%
  % Inhibition, Mean: 19%
  mean % activity: 81%
[7]; JNK2, Run 1
  % activity: 77.1%
[7]; JNK2, Run 2
  % activity: 84.6%
